Source: patent publication EP4570800A1, “CRYSTAL FORM OF PYRIDINOPYRIMIDINONE COMPOUND, ACID SALT THEREOF, CRYSTAL FORM OF ACID SALT THEREOF, AND USE” (Wuhan Humanwell Innovative Drug Research and Development …, priority 2022, dated 2024)

Key:
[1] = Dynamic solubility in water, SGF, FaSSIF and FeSSIF; settings: listed as Crystal form A of compound of formula I; for S: solubility: 37°C, solid feed concentration 10 mg/mL; for pH: pH value of the filtrate
Method: 100 mg of NaCl and 50 mg of Triton X-100 were weighed into a 50 mL volumetric flask, and purified water was added to complete dissolution. 816 µL of 1 M hydrochloric acid was added thereto, and the pH was adjusted to 1.8 with 1 M hydrochloric acid or 1 M NaOH solution. Purified water was added to make up to volume.
340 mg of anhydrous NaH2PO4, 42 mg of NaOH, and 620 mg of NaCl were weighed into a 100 mL volumetric flask. Purified water was added to complete dissolution. The pH was adjusted to 6.5 with 1 M hydrochloric acid or 1 M NaOH solution. Purified water was added to make up to volume. 110 mg of SIF powder was then weighed into a 50 mL volumetric flask, added with the above solution to complete dissolution and make up to volume.
About 90 mL of purified water was added to complete dissolution, and the pH was adjusted to 5.0 with 1 M hydrochloric acid or 1 M NaOH solution. Purified water was added to make up to volume. 560 mg of SIF powder was then weighed into a 50 mL volumetric flask, added with the above solution to complete dissolution and make up to volume.
Rotating mixing was carried out at 37°C at a solid feed concentration of 10 mg/mL (calculated as the compound of formula I). […] After sampling at each time point, the samples were centrifuged (10000 rpm) and filtered (0.45 µm PTFE filter head), and the HPLC concentration and pH value of the filtrate were measured.

[2] = Solid state stability (XRPD and HPLC); type: physicochemical; settings: for HPLC results Purity (area%) / Crystal form: listed as Crystal form A of compound of formula I
Method: The purity test, dynamic solubility test, and stability test in the assay were measured with an Agilent 1260 high-performance liquid chromatograph, and the salt formation molar ratio of ions was tested by ion chromatography, and the analytical conditions are shown in Table 5 and Table 6.
Table 56 Summary of solid state stability evaluation

[3] = Hygroscopicity by dynamic vapor sorption (DVS); type: physicochemical; settings: 25°C
Method: The dynamic vapor sorption (DVS) curve was collected on DVS IntrInsic from SMS (surface measurement systems). The relative humidity at 25°C was corrected using the deliquescence points of LiCl, Mg(NO3)2, and KCl.
Starting from 0%RH or room humidity, the test collected the mass change percentage of the sample as the humidity changed (0%RH to 95%RH) under constant temperature conditions of 25°C.

[4] = Influence of vacuum drying conditions on crystal form A (XRPD, HPLC purity); type: physicochemical
Method: In order to evaluate the influence of the drying conditions on the crystal form A of the compound of formula I, the changes of the sample before and after vacuum drying of the crystal form A of the compound of formula I under the condition of 60°C/80°C for 4 hours were respectively investigated. The XRPD, ^1H NMR, and HPLC purity of the dried sample were tested. […]

[5] = system: ERK phosphorylation level in DLD-1 cells; experiment: Inhibition of ERK phosphorylation level in DLD-1 cells (intracellular western blot); type: cell-based; settings: Homo sapiens
Method: Intracellular western blot quantitative analysis was used to detect the inhibitory level of compounds on ERK phosphorylation in DLD-1 cells.
DLD-1 cells (ATCC, CCL-221) were seeded in a T75 culture flask at 2.5 × 10^6 cells/flask, and cultured in a RPMI 1640 medium containing 10% FBS for 2 days. On day 3, the cells were seeded on a 384-well plate, and cultured overnight at 37°C, 5% CO2. After overnight culture, the plate was added with serially diluted compounds (the final content of DMSO was 0.5%), the negative group was added with DMSO, and incubated in a 37°C, 5% CO2 incubator.
The cells were fixed, washed once with PBS, treated to disrupt membranes, and blocked at room temperature for 1 h. The blocking solution was removed. The plate was added with primary antibody (CST, Cat. No. #4370S), and incubated overnight at 4°C. The plate was washed 3 times with PBST (PBS solution added with 0.05% Tween-20), and soaked for 2 min each time. The plate was added with secondary antibody (LI-COR, Cat. No. 926-32211), and incubated at room temperature in the dark. The plate was washed 3 times with PBST, and soaked for 2 min each time. The plate was centrifuged at 1000 rpm for 1 min, scanned on a two-color infrared laser imaging system (Odyssey® CLX) to read the signal. Relative signal = 800-channel signal values/700-channel signal values. […]
(§1) IC50 values were calculated using Graphpad 5 software.

[6] = system: H358 cells; experiment: Inhibition of 3D cell proliferation (3D CellTiter-Glo); type: cell-based; settings: Homo sapiens, NCI-H358, 168 h; 3D cell proliferation in H358 cells, 7 days culture, 3D CellTiter-Glo
Method: H358 cells were seeded in a T75 culture flask, and cultured in a RPMI 1640 medium containing 10% FBS for 2 days for subsequent experiments in which the cells would be cultured or seeded on a 384-well plate.
On day 1, the cells were seeded on the 384-well plate, with 40 µL of medium added per well and serially diluted compounds or DMSO added per well, and an additional well without seeded cells but with medium was set up as a blank control. After culture at 37°C, 5% CO2 for 7 days, the plate was added with 3D CellTiter-Glo reagent (Promega, Cat. No. G9683) on day 8, shaken at 320 rpm for 20 min, and left at room temperature for 2 h. Luminescence signals were read on a multifunctional microplate reader. Cell viability inhibition rate was calculated as: [formula]
as §1

[7] = Human liver microsome stability test; type: in vitro ADME; settings: human liver microsomes, incubation for 30 min, 37°C
Method: The human liver microsome stability test was performed by incubating the compound and human liver microsomes in vitro. First, the compound to be tested was prepared into a 10 mM stock solution in DMSO solvent, and then the compound was diluted to 0.5 mM with acetonitrile. Human liver microsomes (Corning) were diluted with PBS into a microsome/buffer solution, and the solution was used to dilute 0.5 mM compound into a working solution, in which the concentration of the compound was 1.5 µM, and the concentration of human liver microsomes was 0.75 mg/mL. A deep-well plate was taken, 30 µL of the working solution was added per well, and then 15 µL of pre-heated 6 mM NADPH solution was added thereto to initiate a reaction, and the reaction was incubated at 37°C. At 0, 5, 15, 30, and 45 min of the incubation, 135 µL of acetonitrile was added to the corresponding wells to terminate the reaction. After the reaction was terminated with acetonitrile at the last time point of 45 min, the deep-well plate was vortexed for 10 min (600 rpm/min), and then centrifuged for 15 min. After centrifugation, the supernatant was collected, and added with purified water in a ratio of 1:1 to perform LC-MS/MS detection. A ratio of a peak area of compound to a peak area of internal standard at each time point was obtained, and the peak area ratios of the compound at 5, 15, 30, and 45 min were compared with the peak area ratio at 0 min to calculate the remaining percentage of the compound at each time point. T1/2 was calculated by using GraphPad 5 software.

[8] = system: NCI-H1975 non-small cell lung cancer; experiment: In vivo efficacy test of NCI-H1975 non-small cell lung cancer (combination with osimertinib); parameters: species or system mice; settings: 1 mg/kg, QD
Method: NCI-H1975 tumor cells were cultured in an incubator at 37°C and 5% CO2 using medium containing inactivated RPMI 1640 + 10% FBS. After reaching a confluency rate of 80 to 90%, the cells were passaged by subculturing. After one week of adaptive feeding in mice, NCI-H1975 cells in logarithmic phase were inoculated subcutaneously into the right flank of mice at a concentration of 5 × 10^6/100 µL. Tumor growth was regularly monitored until the tumors reached an average volume of 100 to 150 mm^3. […] Tumor size and animal weight were measured and recorded before and during the administration process. The differences in tumor size between the model group and administration group were compared to determine the efficacy.

Compound: Cc1nc(N[C@H](C)c2cccc(S(F)(F)(F)(F)F)c2)c2cn(C3(CF)CC3)c(=O)cc2n1
- S: solubility ([1]; FaSSIF, 1 hour, 60 min): 210 µg/mL
- S: solubility ([1]; FaSSIF, 4 hours, 240 min): 80 µg/mL
- S: solubility ([1]; FaSSIF, 24 hours, 1440 min): 50 µg/mL
- S: solubility ([1]; FeSSIF, 1 hour, 60 min): 2720 µg/mL
- S: solubility ([1]; FeSSIF, 4 hours, 240 min): 2880 µg/mL
- S: solubility ([1]; FeSSIF, 24 hours, 1440 min): 2740 µg/mL
- S: solubility ([1]; H2O, 1 hour, 60 min): 140 µg/mL
- S: solubility ([1]; H2O, 4 hours, 240 min): 110 µg/mL
- S: solubility ([1]; H2O, 24 hours, 1440 min): 110 µg/mL
- S: solubility ([1]; SGF, 1 hour, 60 min): 6840 µg/mL
- S: solubility ([1]; SGF, 4 hours, 240 min): 7670 µg/mL
- S: solubility ([1]; SGF, 24 hours, 1440 min): 7760 µg/mL
- pH ([1]; FaSSIF, 1 hour): 6.3
- pH ([1]; FaSSIF, 4 hours): 6.3
- pH ([1]; FaSSIF, 24 hours): 6.4
- pH ([1]; FeSSIF, 1 hour): 5.1
- pH ([1]; FeSSIF, 4 hours): 5.1
- pH ([1]; FeSSIF, 24 hours): 5.1
- pH ([1]; H2O, 1 hour): 5.4
- pH ([1]; H2O, 4 hours): 6.0
- pH ([1]; H2O, 24 hours): 5.8
- pH ([1]; SGF, 1 hour): 3.2
- pH ([1]; SGF, 4 hours): 3.3
- pH ([1]; SGF, 24 hours): 3.2
- HPLC results Purity (area%) ([2]; 25°C/60%RH/open, 1 week): 97.13 area%
- HPLC results Purity (area%) ([2]; 40°C/75%RH/open, 1 week): 97.14 area%
- HPLC results Purity (area%) ([2]; Onset): 97.06 area%
- Crystal form ([2]; XRPD after 25°C/60%RH/open, 1 week): Crystal form A of compound of formula I
- Crystal form ([2]; XRPD after 40°C/75%RH/open, 1 week): Crystal form A of compound of formula I
- solid state stability ([2]; open, one week at 25°C/60% RH and 40°C/75% RH): good stability
- DVS behaviour when higher than 10% RH ([3]; higher than 10% RH): absorb more moisture and gain more weight with the increase of humidity
- DVS behaviour when lower than 10% RH ([3]; lower than 10% RH): rapidly dehydrate
- Area (%) of main peak (relative retention time 1.00) After vacuum drying at 60°C ([4]; vacuum drying at 60°C for 4 hours, onset 97.07): 97.11%
- change in HPLC purity before and after drying ([4]; vacuum drying at 60°C/80°C for 4 hours): no significant change in purity
- crystal form after vacuum drying (XRPD) ([4]; vacuum drying at 60°C/80°C for 4 hours, then 19°C/27% RH for 10-15 min): still the crystal form A of the compound of formula I
- Area (%) of main peak (relative retention time 1.00) After vacuum drying at 80°C ([4]; vacuum drying at 80°C for 4 hours, onset 97.07): 97.14%

Compound: Cc1nc(N[C@H](C)c2cccc(C(F)(F)F)c2C)c2cn(C3(CF)CC3)c(=O)cc2n1 [Control compound 1, reference compound]
- IC50 [5]: 72 nM
- IC50 [6]: 13 nM
- Remaining percentage (%) of compound after incubation for 30 min [7]: 70.2%

Compound: C=CC(=O)Nc1cc(Nc2nccc(-c3cn(C)c4ccccc34)n2)c(OC)cc1N(C)CCN(C)C [Osimertinib]
- Average tumor weight at the end of the treatment [8]: 3.2 g
